Measured values from patent publication US6358885B1, “Substituted phenylheterocyclic herbicides” (Mississippi State University, priority 1992, dated 2002).

Tested on: speedwell
Test: Test C preemergence/postemergence greenhouse plant response rating 0 to 100
Assay type: in vivo, Veronica persica
Details: for Plant response rating Speedwell: 0 to 100 scale
Description: The compounds evaluated in this test were formulated in a non-phytoxic solvent and applied to the soil surface before plant seedlings emerged (preemergence application), to water that covered the soil surface (flood application), and to plants that were in the one-to-four leaf stage (postemergence application). A sandy loam soil was used for the preemergence and postemergence tests, while a silt loam soil was used in the flood test. Water depth was approximately 2.5 cm for the flood test and was maintained at this level for the duration of the test. Plant species in the preemergence and postemergence tests consisted of barley (Hordeum vulgare), bedstraw (Galium aparine), blackgrass (Alopecurus myosuroides), chickweed (Stellaria media), corn (Zea mays), cotton (Gossypium hirsutum), crabgrass (Digitaria sanguinalis), downy brome (Bromus tectorum), giant foxtail (Setaria faberii), lambsquarters (Chenopodium album), morningglory (Ipomoea hederacea), pigweed ([…]), rape (Brassica napus), ryegrass (Lolium multiflorum), sorghum (Sorghum bicolor), soybean (Glycine max), speedwell (Veronica persica), sugar beet (Beta vulgaris), velvetleaf (Abutilon theophrasti), wheat (Triticum aestivum), wild buckwheat (Polygonum convolvulus), and wild oat (Avena fatua). All plant species were planted one day before application of the compound for the preemergence portion-of this test. Plantings of these species were adjusted to produce plants of appropriate size for the post-emergence portion of the test. […] All plant species were grown using normal greenhouse practices. Visual evaluations of injury expressed on treated plants, when compared to untreated controls, were recorded approximately fourteen to twenty one days after application of the test compound. […] A dash (-) response means no test result.

Compound | Plant response rating Speedwell (POSTEMERGENCE, 62 g/ha) | Plant response rating Speedwell (POSTEMERGENCE, 125 g/ha) | Plant response rating (0 to 100), Speedwell (Rate 16 g/ha, POSTEMERGENCE) | Plant response rating (0 to 100), Speedwell (Rate 31 g/ha, POSTEMERGENCE) | Plant response rating (0 to 100), Speedwell (POSTEMERGENCE, Rate 4 g/ha) | Plant response rating (0 to 100), Speedwell (POSTEMERGENCE, Rate 1 g/ha) | other results
CC(C)Oc1cc(-c2nn3c(c2Br)CCCC3)c(F)cc1Cl [Compound 38] | – | – | – | – | – | – | Plant response rating (0 to 100), Speedwell (PREEMERGENCE, Rate 1 g/ha): 0; Plant response rating (0 to 100), Speedwell (PREEMERGENCE, Rate 4 g/ha): 0; Plant response rating (0 to 100), Speedwell (Rate 16 g/ha, PREEMERGENCE): 0
CC(C)OC(=O)COc1cc(-c2nn3c(c2Cl)CCCC3)c(F)cc1Cl [Compound 39] | 95 | 100 | 90 | 90 | – | – | –
C=C(Cl)COc1cc(-c2nn3c(c2Cl)CCCC3)c(F)cc1Cl [Compound 40] | 100 | 100 | 90 | 95 | – | – | –
C=CCN1C(=O)COc2cc(F)c(-c3nn4c(c3Br)CCCC4)cc21 [Compound 41] | 100 | 100 | 100 | 100 | – | – | –
CCOC(=O)COc1cc(-c2nn3c(c2Cl)CCCC3)c(F)cc1Cl [Compound 42] | 100 | 100 | 95 | 100 | – | – | –
Fc1cc(Cl)c(OCCCl)cc1-c1nn2c(c1Cl)CCCC2 [Compound 49] | 100 | – | 100 | – | 85 | – | Plant response rating Speedwell (POSTEMERGENCE, 250 g/ha): 100
C#CC(C)N1C(=O)COc2cc(F)c(-c3nn4c(c3Cl)CCCC4)cc21 (stereo not drawn) [Compound 50] | 100 | – | 100 | – | 70 | 0 | –
Fc1cc(Cl)ccc1-c1nn2c(c1Br)CCCC2 [Compound 52] | – | 100 | – | 100 | – | – | Plant response rating Speedwell (PREEMERGENCE, 125 g/ha): 100; Plant response rating (0 to 100), Speedwell (PREEMERGENCE, Rate 2 g/ha): 0; Plant response rating (0 to 100), Speedwell (Rate 8 g/ha, POSTEMERGENCE): 30; Plant response rating (0 to 100), Speedwell (Rate 8 g/ha, PREEMERGENCE): 0; Plant response rating (0 to 100), Speedwell (Rate 31 g/ha, PREEMERGENCE): 20
CCN1C(=O)COc2cc(F)c(-c3nn4c(c3Cl)CCCC4)cc21 [Compound 54] | 100 | – | 100 | – | 100 | 100 | Plant response rating (0 to 100), Speedwell (PREEMERGENCE, Rate 1 g/ha): 50; Plant response rating (0 to 100), Speedwell (PREEMERGENCE, Rate 4 g/ha): 100; Plant response rating (0 to 100), Speedwell (Rate 16 g/ha, PREEMERGENCE): 100
COCN1C(=O)COc2cc(F)c(-c3nn4c(c3Cl)CCCC4)cc21 [Compound 55] | 100 | – | 100 | – | 100 | 60 | –
C#CCN1C(=O)COc2cc(F)c(-c3nn4c(c3Br)CCCC4)cc21 [Compound 56] | 100 | – | 100 | – | 100 | 100 | –
COCOc1cc(-c2nn3c(c2Cl)CCCC3)c(F)cc1Cl [Compound 58] | – | 100 | – | 100 | – | – | Plant response rating (0 to 100), Speedwell (POSTEMERGENCE, Rate 2 g/ha): 40; Plant response rating Speedwell (PREEMERGENCE, 125 g/ha): 100; Plant response rating (0 to 100), Speedwell (PREEMERGENCE, Rate 2 g/ha): 0; Plant response rating (0 to 100), Speedwell (Rate 8 g/ha, POSTEMERGENCE): 70; Plant response rating (0 to 100), Speedwell (Rate 8 g/ha, PREEMERGENCE): 100; Plant response rating (0 to 100), Speedwell (Rate 31 g/ha, PREEMERGENCE): 100
CCOCOc1cc(-c2nn3c(c2Cl)CCCC3)c(F)cc1Cl [Compound 59] | – | 100 | – | 100 | – | – | Plant response rating (0 to 100), Speedwell (POSTEMERGENCE, Rate 2 g/ha): 100; Plant response rating Speedwell (PREEMERGENCE, 125 g/ha): 100; Plant response rating (0 to 100), Speedwell (Rate 8 g/ha, POSTEMERGENCE): 100; Plant response rating (0 to 100), Speedwell (Rate 8 g/ha, PREEMERGENCE): 50; Plant response rating (0 to 100), Speedwell (Rate 31 g/ha, PREEMERGENCE): 100
CCCN1C(=O)COc2cc(F)c(-c3nn4c(c3Br)CCCC4)cc21 [Compound 63] | – | – | – | – | – | – | Plant response rating Speedwell (PREEMERGENCE, 250 g/ha): 100; Plant response rating (0 to 100), Speedwell (PREEMERGENCE, Rate 4 g/ha): 0; Plant response rating (0 to 100), Speedwell (Rate 16 g/ha, PREEMERGENCE): 90
C#CC(C)Oc1cc(-c2nn3c(c2Br)CCCC3)c(F)cc1Cl (stereo not drawn) [Compound 66] | 100 | – | 100 | – | 100 | – | Plant response rating Speedwell (POSTEMERGENCE, 250 g/ha): 100; Plant response rating Speedwell (PREEMERGENCE, 250 g/ha): 100; Plant response rating (0 to 100), Speedwell (PREEMERGENCE, Rate 4 g/ha): 0; Plant response rating (0 to 100), Speedwell (Rate 16 g/ha, PREEMERGENCE): 90
COCN1C(=O)COc2cc(F)c(-c3nn4c(c3Br)CCCC4)cc21 [Compound 67] | 100 | – | 100 | – | 100 | 90 | –
